# Values joined by “and” are separate entries in the source; they are usually repeats but may differ in a detail not shown here. Identical values can stand only once. “Also recorded” adds a separate entry of the source.
# Experiments:
# [1] = tested on: p-STAT3 in MDA-MB-231 cells; test: Western blot of p-STAT3 / total STAT3 in MDA-MB-231 cells; type: cell-based, human; conditions: for IC50: Homo sapiens, MDA-MB-231, 1 h, MDA-MB-231, 1 h treatment, densitometry of Western blots, approximate, read-out: IC50 for inhibition of p-STAT3 levels
# Protocol: The expression of different proteins involved in IL-6 signaling pathway was analyzed by Western blots, as previously described. Briefly, MDA-MB-231 or A549 cells (2 × 10^6 cells/well) were seeded overnight in DMEM/RPMI plus 2% FBS, followed by incubation with MH or sugar control (SC) in 5% FBS-DMEM/RPMI for different times, as indicated in the figures. In some studies, we investigated the effect of treatment with different flavonoid compounds on p-STAT3 expression using a range of doses (0.4–50 μM). In other experiments, we also studied the effect of incubating MDA-MB-231 cells in the presence of Brefeldin A (BFA; 1 mg/mL) alone or with 1% MH for 4 h on p-STAT3 levels. Cell extracts were prepared in RIPA buffer and subjected to Western blot analysis using antibodies (purchased from Cell Signaling Technology, Danvers, MA, USA) specific to total STAT3 (t-STAT3), tyrosine-phosphorylated (Tyr705) STAT3 (p-STAT3), gp130, JAK2, tyrosine-phosphorylated (Tyr1007/1008) JAK2 (p-JAK2), tyrosine-phosphorylated (Tyr416) Src family (p-Src), total Src, and β-actin. Densitometric analysis of the band intensity on the blots was done using ImageJ (National Institutes of Health, USA). We modeled the binding inhibition pharmacodynamics of p-STAT3 levels as standard drug-receptor interactions based on mass-action kinetics. Specifically, dose response was modelled as: Y=[L]/[L]+K where Y is the receptor occupancy, L is the ligand concentration, and K is a compound-specific association constant.
# Statistical significance between control and treated groups was analyzed using the unpaired, two-tailed Student’s t-test, using the statistical program of GraphPad Prism version 6 software (San Diego, CA, USA). For multiple comparisons, we used ordinary two-way ANOVA (GraphPad Prism). Differences between the experimental groups were considered significant when p values were <0.05. Nonlinear regression best-fit curve analysis was used to determine the IC50 for p-STAT3 inhibition.
# IL-6Rα = target: T1, IL-6Rα (Homo sapiens, UniProt P08887); test: ELISA-based competitive binding assay, IL-6 binding to immobilized IL-6Rα
# T1 construct: purchased R&D Systems
# T1 sequence (P08887 20-355 limits assumed): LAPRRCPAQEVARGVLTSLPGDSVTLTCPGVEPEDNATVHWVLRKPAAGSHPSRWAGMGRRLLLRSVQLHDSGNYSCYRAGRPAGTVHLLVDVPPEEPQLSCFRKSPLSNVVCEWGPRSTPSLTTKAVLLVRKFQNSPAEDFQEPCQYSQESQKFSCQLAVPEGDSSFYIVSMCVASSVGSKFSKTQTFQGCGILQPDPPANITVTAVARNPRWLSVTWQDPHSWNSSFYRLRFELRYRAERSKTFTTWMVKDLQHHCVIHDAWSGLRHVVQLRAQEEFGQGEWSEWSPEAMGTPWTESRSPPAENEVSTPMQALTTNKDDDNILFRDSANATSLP
# Protocol: We used an ELISA-based assay to determine if MH can bind to recombinant IL-6Rα, IL-8R, and IL-11Rα proteins (all purchased from R&D Systems; Minneapolis, MN, USA). IL-6Rα (2 μg/mL), IL-8R (0.5 μg/mL), or IL-11Rα (1 μg/mL) proteins were coated on 96-well plates by overnight incubation at 4 °C. The plates were then washed with PBS + 0.05% tween 20 and blocked with PBS containing 1% BSA for 1 h at room temperature. For competition assay, various concentrations of MH (0.03–3%) were added to recombinant receptor-coated plates and incubated for 1 h at room temperature. After thorough washing, recombinant IL-6, IL-8, or IL-11 cytokines were added (50 ng/mL) and incubated for 1 h at 37 °C. The plates were then thoroughly washed and biotin-conjugated mAbs to IL-6 (0.25 µg/mL), IL-8 (0.5 µg/mL) or IL-11 (0.5 µg/mL) were added for 1 h at room temperature. After another round of washing, HRP-conjugated streptavidin was added for 30 min, washed, and developed by adding 3,3′,5,5′-Tetramethylbenzidine (TMB) substrate for 10 min. Additionally, the potential effect of flavonoid compounds (luteolin, quercetin, galangin, and chrysin; dose range 0.5–50 μM) on binding to IL-6Rα was investigated in the same assay. The dose-response was modeled based on mass-action kinetic drug-response interactions.
# [2] = tested on: p-STAT3 in human bladder cancer cells; parameters: method as in PMID 29805643; conditions: 40–80 μM, mostly after 24 h; cited from earlier work
# [3] = tested on: STAT3 in different types of cancer cells; parameters: method as in PMID 16651438, PMID 23145121, PMID 24525192, PMID 24998588, PMID 26527884; conditions: different cancer cell types; cited from earlier work
# [4] = tested on: p-STAT3 in lung cancer cells; parameters: method as in PMID 25830055; conditions: 66 μM, 12–24 h; cited from earlier work
# [5] = 10-fold lower concentration (5 μM)
Structure (SMILES),inhibition of IL-6 binding to IL-6Rα (IL-6Rα; 50 μM flavonoid) [%],inhibition of IL-6 binding to IL-6Rα (IL-6Rα; [5]),IC50 [1],"p-STAT3 levels ([1]; MDA-MB-231, 4 h, Brefeldin A 1 mg/mL alone or with 1% MH)",p-STAT3 [2],concentration range at which inhibitory effects were observed [3] [µM],binding to IL-6Rα (IL-6Rα; up to 50 μM),p-STAT3 levels [4]
C[C@H]1CCC/C=C/[C@@H]2C[C@H](O)C[C@H]2[C@H](O)/C=C/C(=O)O1 [Brefeldin A],–,–,–,significant loss,–,–,–,–
O=c1c(O)c(-c2ccc(O)c(O)c2)oc2cc(O)cc(O)c12 [quercetin],29.2,decreased but significant inhibition,~51 µM and 15.4 µg/mL,–,–,–,–,reduce p-STAT3 levels

# Now from value to compound, other results behind:
inhibition of IL-6 binding to IL-6Rα (IL-6Rα; 50 μM flavonoid) [%],inhibition of IL-6 binding to IL-6Rα (IL-6Rα; [5]),IC50 [1],Structure (SMILES),"p-STAT3 levels ([1]; MDA-MB-231, 4 h, Brefeldin A 1 mg/mL alone or with 1% MH)",p-STAT3 [2],concentration range at which inhibitory effects were observed [3] [µM],binding to IL-6Rα (IL-6Rα; up to 50 μM),p-STAT3 levels [4]
31.8,decreased but significant inhibition,~7.7 µM and 2 µg/mL,O=c1cc(-c2ccccc2)oc2cc(O)cc(O)c12 [chrysin],–,inhibit p-STAT3,–,–,–
34.3,decreased but significant inhibition,~4.4 µM and 1.2 µg/mL,O=c1c(O)c(-c2ccccc2)oc2cc(O)cc(O)c12 [galangin],–,–,–,–,–
22.4,–,~3.5 µM and 1 µg/mL,O=c1cc(-c2ccc(O)c(O)c2)oc2cc(O)cc(O)c12 [luteolin],–,–,20 to 50,–,–
–,–,~70.2 µM and 18 µg/mL,O=C1C[C@@H](c2ccccc2)Oc2cc(O)cc(O)c21 [pinocembrin],–,–,–,no significant binding; also recorded: inability to detect any binding,–

# From PMC6769459, “Inhibition of Tyrosine-Phosphorylated STAT3 in Human Breast and Lung Cancer Cells by Manuka Honey is Mediated by Selective Antagonism of the IL-6 Receptor” (International Journal of Molecular Sciences, 2019)
